Assay results: ChEMBL document CHEMBL2029212, “Discovery of 1,4-disubstituted 3-cyano-2-pyridones: a new class of positive allosteric modulators of the metabotropic glutamate 2 receptor” (J Med Chem, 2012)
pEC50: −log10 of the molar value.

Experiments:
[1] = Drug level in Swiss mouse brain at 10 mg/kg, sc after 0.5 hrs; format: ADME, organism-based; design: dose 10 mg/kg, route subcutaneous; conditions: read-out: Drug uptake
[2] = Drug level in Swiss mouse brain at 10 mg/kg, sc after 1.5 hrs; format: ADME, organism-based; design: dose 10 mg/kg, route subcutaneous; conditions: read-out: Drug uptake
hERG = hERG (Homo sapiens, UniProt Q12809); assay: Inhibition of human ERG expressed in HEK293 cells assessed as whole cell current at 3 uM after 5 mins by automated patch-clamp assay relative to control; format: cell-based; conditions: HEK293 cells expressing hERG
[3] = Drug metabolism in rat liver microsomes at 5 uM after 15 mins; format: ADME, Microsome; conditions: read-out: Drug metabolism
[4] = Drug metabolism in human liver microsomes at 5 uM after 15 mins; format: ADME, Microsome; conditions: read-out: Drug metabolism
[5] = Ratio of drug level in brain to plasma in Swiss mouse at 10 mg/kg, sc after 1 hr; format: ADME, organism-based; design: dose 10 mg/kg, route subcutaneous; conditions: read-out: BPR
[6] = Drug level in Swiss mouse brain at 10 mg/kg, sc after 1 hr; format: ADME, organism-based; design: dose 10 mg/kg, route subcutaneous; conditions: read-out: Drug uptake
Brain = assay: Ratio of drug level in Swiss mouse brain at 10 mg/kg, sc after 1.5 hrs to drug level in Swiss mouse brain at 10 mg/kg, sc after 1 hr; format: ADME, organism-based; conditions: in vivo
[7] = biological target: T1, Metabotropic glutamate receptor 2 (Homo sapiens, UniProt Q14416); assay: Positive allosteric modulation of human mGlu2 receptor expressed in CHO cells assessed as glutamate-induced [35S]GTPgammaS binding after 30 mins by liquid scintillation counting relative to glutamate; format: functional, cell-based
Target sequence in this assay (Q14416 19-872 limits assumed): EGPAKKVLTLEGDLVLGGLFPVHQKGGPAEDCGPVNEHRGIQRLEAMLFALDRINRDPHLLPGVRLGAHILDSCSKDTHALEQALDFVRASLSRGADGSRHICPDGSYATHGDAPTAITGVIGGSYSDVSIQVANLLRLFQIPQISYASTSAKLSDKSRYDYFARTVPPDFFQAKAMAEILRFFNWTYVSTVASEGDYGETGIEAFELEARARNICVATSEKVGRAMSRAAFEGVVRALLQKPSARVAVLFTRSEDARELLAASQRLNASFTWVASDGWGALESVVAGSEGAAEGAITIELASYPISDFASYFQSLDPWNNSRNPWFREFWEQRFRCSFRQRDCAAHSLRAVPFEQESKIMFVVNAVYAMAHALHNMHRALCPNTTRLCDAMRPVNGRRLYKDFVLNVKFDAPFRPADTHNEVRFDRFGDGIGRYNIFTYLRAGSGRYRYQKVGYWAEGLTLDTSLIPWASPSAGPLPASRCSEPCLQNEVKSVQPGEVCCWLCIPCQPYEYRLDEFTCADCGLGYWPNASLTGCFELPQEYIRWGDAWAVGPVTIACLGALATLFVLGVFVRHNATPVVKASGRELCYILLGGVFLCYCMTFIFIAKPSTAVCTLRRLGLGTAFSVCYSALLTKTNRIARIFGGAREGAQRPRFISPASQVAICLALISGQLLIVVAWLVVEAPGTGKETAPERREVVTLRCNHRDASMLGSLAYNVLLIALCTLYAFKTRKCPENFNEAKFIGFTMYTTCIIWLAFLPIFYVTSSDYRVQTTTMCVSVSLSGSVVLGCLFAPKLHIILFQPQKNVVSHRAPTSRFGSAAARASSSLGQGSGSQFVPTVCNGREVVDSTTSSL

CYP1A2 [8] = biological target: T2, CYP1A2 (Homo sapiens, UniProt P05177); assay: Inhibition of CYP1A2 at 1 uM; format: ADME
T2 sequence (P05177 whole entry): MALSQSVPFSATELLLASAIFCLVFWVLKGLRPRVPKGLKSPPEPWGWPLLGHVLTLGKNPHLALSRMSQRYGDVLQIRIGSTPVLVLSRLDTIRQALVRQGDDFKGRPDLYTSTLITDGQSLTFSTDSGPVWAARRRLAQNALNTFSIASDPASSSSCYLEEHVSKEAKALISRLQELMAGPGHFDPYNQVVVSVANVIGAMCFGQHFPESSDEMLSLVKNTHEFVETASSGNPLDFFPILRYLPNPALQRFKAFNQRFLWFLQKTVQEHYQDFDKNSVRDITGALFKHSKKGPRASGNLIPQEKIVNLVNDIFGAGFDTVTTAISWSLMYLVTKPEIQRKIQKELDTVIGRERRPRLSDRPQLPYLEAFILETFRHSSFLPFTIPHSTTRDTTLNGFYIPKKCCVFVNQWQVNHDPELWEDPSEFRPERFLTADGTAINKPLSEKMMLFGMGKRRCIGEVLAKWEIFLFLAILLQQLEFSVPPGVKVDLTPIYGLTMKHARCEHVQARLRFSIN

CYP3A4 [9] = biological target: T3, CYP3A4 (Homo sapiens, UniProt P08684); assay: Inhibition of CYP3A4 at 1 uM; format: ADME
CYP2C19 [10] = biological target: T4, CYP2C19 (Homo sapiens, UniProt P33261); assay: Inhibition of CYP2C19 at 1 uM; format: ADME
CYP2C9 [11] = biological target: T5, CYP2C9 (Homo sapiens, UniProt P11712); assay: Inhibition of CYP2C9 at 1 uM; format: ADME
[12] = Aqueous solubility of the compound in 20% HP-beta-CD buffer at pH 4; format: physicochemical
CYP2D6 [13] = biological target: T6, CYP2D6 (Homo sapiens, UniProt P10635); assay: Inhibition of CYP2D6 at 1 uM; format: ADME
[14] = biological target: T1, Metabotropic glutamate receptor 2; assay: Positive allosteric modulation of human mGlu2 receptor expressed in CHO cells assessed as glutamate-induced [35S]GTPgammaS binding after 30 mins by liquid scintillation counting; format: functional, cell-based
Target sequence in this assay (Q14416 whole entry): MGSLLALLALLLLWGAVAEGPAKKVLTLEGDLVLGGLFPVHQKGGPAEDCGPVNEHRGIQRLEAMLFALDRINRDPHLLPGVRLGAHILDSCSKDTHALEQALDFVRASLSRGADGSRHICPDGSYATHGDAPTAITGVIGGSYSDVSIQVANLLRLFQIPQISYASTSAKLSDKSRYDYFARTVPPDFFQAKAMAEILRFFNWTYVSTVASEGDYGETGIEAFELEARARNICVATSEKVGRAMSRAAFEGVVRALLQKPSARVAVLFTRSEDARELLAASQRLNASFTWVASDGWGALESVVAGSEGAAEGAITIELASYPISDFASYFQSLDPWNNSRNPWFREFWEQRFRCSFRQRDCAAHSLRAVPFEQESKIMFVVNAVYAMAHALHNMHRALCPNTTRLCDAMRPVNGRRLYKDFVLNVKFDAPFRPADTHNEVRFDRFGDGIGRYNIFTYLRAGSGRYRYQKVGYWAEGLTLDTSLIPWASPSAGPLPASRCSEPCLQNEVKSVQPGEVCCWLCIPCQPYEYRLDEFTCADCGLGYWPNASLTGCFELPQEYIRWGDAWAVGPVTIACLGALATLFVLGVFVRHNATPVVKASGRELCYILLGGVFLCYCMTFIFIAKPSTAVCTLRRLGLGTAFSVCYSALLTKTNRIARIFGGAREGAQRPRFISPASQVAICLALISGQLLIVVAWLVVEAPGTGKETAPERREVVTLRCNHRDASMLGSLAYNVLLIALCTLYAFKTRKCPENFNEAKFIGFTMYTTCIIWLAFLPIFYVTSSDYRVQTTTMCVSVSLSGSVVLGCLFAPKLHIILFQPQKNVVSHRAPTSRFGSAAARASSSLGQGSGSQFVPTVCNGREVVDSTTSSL

CYP2C19 [15] = biological target: T4, CYP2C19; assay: Inhibition of CYP2C19 at 5 uM; format: ADME
CYP2C9 [16] = biological target: T5, CYP2C9; assay: Inhibition of CYP2C9 at 5 uM; format: ADME
CYP1A2 [17] = biological target: T2, CYP1A2; assay: Inhibition of CYP1A2 at 5 uM; format: ADME
CYP2D6 [18] = biological target: T6, CYP2D6; assay: Inhibition of CYP2D6 at 5 uM; format: ADME
[19] = Aqueous solubility of the compound in 20% HP-beta-CD buffer at pH 4 to 7.4; format: physicochemical
CYP3A4 [20] = biological target: T3, CYP3A4; assay: Inhibition of CYP3A4 at 5 uM; format: ADME

Chain of hERG (Q12809 whole entry): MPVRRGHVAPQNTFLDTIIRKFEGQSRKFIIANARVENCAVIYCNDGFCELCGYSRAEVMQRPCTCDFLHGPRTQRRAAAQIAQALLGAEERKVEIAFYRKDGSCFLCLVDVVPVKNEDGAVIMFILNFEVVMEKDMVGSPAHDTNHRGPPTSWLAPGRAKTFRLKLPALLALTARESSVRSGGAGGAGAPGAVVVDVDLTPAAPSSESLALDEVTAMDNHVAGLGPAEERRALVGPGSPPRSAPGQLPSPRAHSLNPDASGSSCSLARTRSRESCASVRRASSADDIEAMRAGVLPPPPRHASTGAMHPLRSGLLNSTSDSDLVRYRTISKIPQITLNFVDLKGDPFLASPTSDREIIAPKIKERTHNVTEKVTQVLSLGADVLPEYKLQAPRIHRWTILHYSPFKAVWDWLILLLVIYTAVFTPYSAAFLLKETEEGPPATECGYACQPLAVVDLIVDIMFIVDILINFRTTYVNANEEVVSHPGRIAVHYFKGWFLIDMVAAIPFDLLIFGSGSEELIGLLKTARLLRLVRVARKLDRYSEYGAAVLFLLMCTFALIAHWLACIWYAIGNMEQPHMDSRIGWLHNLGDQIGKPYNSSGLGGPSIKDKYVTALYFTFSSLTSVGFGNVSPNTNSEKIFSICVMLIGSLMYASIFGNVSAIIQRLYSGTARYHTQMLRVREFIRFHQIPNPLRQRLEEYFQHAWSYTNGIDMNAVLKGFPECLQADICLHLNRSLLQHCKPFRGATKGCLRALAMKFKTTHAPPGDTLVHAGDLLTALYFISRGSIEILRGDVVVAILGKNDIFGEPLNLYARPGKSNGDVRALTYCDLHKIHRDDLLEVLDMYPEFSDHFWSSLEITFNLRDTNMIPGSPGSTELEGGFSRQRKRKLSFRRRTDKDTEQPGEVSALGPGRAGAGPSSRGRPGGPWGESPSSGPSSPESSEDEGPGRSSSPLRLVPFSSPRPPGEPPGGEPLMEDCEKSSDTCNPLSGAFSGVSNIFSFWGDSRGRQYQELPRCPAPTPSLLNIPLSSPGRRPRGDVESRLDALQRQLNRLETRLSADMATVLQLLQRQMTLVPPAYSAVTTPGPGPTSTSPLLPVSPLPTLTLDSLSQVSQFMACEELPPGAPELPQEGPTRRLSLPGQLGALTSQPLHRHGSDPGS
T4 sequence (P33261 whole entry): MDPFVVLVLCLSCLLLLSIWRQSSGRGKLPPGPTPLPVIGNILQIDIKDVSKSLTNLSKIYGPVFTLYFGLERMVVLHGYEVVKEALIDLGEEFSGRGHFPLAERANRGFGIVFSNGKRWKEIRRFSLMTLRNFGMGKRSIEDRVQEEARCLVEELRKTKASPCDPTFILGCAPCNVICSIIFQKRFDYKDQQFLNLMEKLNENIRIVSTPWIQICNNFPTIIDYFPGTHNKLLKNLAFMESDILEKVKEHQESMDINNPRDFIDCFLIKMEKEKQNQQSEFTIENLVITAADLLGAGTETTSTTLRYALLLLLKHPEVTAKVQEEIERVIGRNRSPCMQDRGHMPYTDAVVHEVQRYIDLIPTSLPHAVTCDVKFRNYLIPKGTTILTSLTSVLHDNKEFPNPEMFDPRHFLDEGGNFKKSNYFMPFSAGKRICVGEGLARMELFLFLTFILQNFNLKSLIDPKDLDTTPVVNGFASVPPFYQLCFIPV
T5 sequence (P11712 whole entry): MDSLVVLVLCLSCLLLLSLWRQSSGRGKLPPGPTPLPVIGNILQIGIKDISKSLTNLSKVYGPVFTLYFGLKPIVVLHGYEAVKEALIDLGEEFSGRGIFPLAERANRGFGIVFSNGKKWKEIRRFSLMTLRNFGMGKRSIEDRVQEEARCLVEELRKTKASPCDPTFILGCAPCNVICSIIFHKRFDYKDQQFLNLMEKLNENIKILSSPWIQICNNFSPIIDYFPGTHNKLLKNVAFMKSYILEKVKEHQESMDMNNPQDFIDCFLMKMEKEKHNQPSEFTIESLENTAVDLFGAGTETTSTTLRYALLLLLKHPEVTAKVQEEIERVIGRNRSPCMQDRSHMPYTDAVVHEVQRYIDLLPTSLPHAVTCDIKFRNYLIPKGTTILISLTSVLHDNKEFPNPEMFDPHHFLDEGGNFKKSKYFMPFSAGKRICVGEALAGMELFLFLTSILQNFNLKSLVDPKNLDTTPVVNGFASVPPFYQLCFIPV
T3 sequence (P08684 whole entry): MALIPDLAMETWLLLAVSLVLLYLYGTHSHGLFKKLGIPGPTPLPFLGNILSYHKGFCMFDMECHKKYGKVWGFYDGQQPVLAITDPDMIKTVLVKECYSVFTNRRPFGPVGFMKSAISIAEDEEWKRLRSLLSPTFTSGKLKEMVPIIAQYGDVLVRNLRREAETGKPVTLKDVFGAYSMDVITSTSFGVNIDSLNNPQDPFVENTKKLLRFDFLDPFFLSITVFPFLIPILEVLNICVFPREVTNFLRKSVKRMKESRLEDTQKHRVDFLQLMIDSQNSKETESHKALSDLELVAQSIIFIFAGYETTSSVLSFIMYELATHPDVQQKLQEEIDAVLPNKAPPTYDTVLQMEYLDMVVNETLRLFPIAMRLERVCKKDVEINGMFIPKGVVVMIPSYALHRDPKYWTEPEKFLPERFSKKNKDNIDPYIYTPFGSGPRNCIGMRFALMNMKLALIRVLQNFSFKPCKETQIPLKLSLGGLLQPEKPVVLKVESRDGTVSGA
T6 sequence (P10635 whole entry): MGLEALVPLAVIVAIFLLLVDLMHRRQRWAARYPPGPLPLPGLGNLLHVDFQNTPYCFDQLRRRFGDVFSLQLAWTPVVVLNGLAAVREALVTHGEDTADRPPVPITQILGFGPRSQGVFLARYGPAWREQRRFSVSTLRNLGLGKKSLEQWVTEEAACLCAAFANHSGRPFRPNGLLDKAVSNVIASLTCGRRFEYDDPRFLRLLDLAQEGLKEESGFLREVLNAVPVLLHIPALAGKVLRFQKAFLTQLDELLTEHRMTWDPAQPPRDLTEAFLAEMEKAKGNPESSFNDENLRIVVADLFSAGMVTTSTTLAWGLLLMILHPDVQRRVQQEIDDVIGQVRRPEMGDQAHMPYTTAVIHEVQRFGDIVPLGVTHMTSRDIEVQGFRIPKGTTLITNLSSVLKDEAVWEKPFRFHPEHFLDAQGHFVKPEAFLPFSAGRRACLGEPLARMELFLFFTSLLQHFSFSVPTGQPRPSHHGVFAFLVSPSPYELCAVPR

Row | metabolised at 0.25 h, 5 µM [3] [%] | metabolised at 0.25 h, 5 µM [4] [%] | Emax [7] [%] | pEC50 [14] | SMILES | inhibition at 5 min, 3 µM (hERG) [%] | also measured
1 | 44 | 31 | 243 |  | CCCCn1ccc(-c2ccc(Oc3ccnc(C)c3)cc2)c(C#N)c1=O | 53 | concentration at 0.5 h [1]: 1160 ng/g; concentration at 1.5 h [2]: 592 ng/g; Kp at 1 h [5]: 0.5; concentration at 1 h [6]: 994 ng/g; Ratio (Brain): 2
2 | 41 | 27 | 245 | 6.26 | CC(C)CCn1ccc(-c2ccc(Oc3ccncc3)cc2)c(C#N)c1=O | 52 | inhibition at 1 µM (CYP1A2 [8]): 80%; inhibition at 1 µM (CYP3A4 [9]): 70%; inhibition at 1 µM (CYP2C19 [10]): 97%; inhibition at 1 µM (CYP2C9 [11]): 82%; solubility [12]: ≥ 4000 µg/mL; inhibition at 1 µM (CYP2D6 [13]): 84%
3 | 47 | 61 | 266 | 6.35 | Cc1cc(Oc2ccc(-c3ccn(CCC(C)C)c(=O)c3C#N)cc2)ccn1 |  | inhibition at 5 µM (CYP2C19 [15]): < 50%; inhibition at 5 µM (CYP2C9 [16]): < 50%; inhibition at 5 µM (CYP1A2 [17]): < 50%; inhibition at 5 µM (CYP2D6 [18]): < 50%
4 | 32 | 36 | 188 | 7.38 | CC(C)CCn1ccc(-c2ccc(Oc3ccccc3)cc2)c(C#N)c1=O |  | solubility [19]: > 1 µg/mL; inhibition at 5 µM (CYP3A4 [20]): < 50%
